Results taken from patent US8415469B2, “Compounds and methods for kinase modulation, and indications therefor” (Plexxikon Inc., priority 2005, dated 2013).
pIC50: −log10 of the molar value.

Columns and labels:
Format in all cases: biochemical
Abl = molecular target: T1, Abl (Homo sapiens, UniProt P00519); test: AlphaScreen kinase assay, Abl; conditions: read-out: activity toward kinase Abl, IC50
T1 construct: P1121. pET-SPEC BI-PTP Abl G227-V515-X; His6 (N); made in house; host or cells: E. coli (PTP1B co-expressed)
T1 sequence (P00519 with tags, fused parts or gaps): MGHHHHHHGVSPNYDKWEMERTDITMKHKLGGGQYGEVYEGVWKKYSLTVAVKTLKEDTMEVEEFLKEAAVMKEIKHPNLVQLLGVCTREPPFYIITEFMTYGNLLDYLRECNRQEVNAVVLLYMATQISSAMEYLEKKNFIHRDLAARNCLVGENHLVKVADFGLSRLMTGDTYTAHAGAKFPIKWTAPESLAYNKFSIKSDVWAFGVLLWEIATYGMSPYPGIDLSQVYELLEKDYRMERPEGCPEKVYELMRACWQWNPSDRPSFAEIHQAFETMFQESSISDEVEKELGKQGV
Outline: (§1)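 Eight concentrations per compound (1:3 serial dilution of 20 mM DMSO stock) were tested. Read-out: AlphaScreen signal from phospho-antibody acceptor and streptavidin donor beads bound to biotinylated peptide substrate, reduced on kinase inhibition.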

B-Raf V600E = molecular target: T2, B-Raf V600E (Homo sapiens, UniProt P15056, V600E); test: AlphaScreen kinase assay, B-Raf V600E; conditions: read-out: IC50, activity toward kinase B-Raf V600E
T2 construct: P4254. pFastBacBD-CDC37 BRAF D437-K722-X, V600E; His6 with pFastBac HT leader (TEV site) (N); made in house; host or cells: Sf9 (baculovirus; chaperone CDC37 co-expressed)
T2 sequence (P15056 with tags, fused parts or gaps V600E): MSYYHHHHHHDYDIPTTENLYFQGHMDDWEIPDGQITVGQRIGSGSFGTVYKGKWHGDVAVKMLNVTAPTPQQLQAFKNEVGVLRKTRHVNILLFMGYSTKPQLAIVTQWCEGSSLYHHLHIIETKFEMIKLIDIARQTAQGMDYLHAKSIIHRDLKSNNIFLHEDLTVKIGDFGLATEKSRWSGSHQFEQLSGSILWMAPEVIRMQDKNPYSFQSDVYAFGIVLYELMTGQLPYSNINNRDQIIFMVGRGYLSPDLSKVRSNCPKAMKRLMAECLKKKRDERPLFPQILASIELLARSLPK

Kdr = molecular target: T3, Kdr (Homo sapiens, UniProt P35968); test: Z'-Lyte FRET kinase assay (Invitrogen), Kdr; conditions: read-out: IC50, activity toward kinase Kdr
T3 construct: purchased Invitrogen (assay run by Invitrogen)
T3 sequence (P35968 20-1356): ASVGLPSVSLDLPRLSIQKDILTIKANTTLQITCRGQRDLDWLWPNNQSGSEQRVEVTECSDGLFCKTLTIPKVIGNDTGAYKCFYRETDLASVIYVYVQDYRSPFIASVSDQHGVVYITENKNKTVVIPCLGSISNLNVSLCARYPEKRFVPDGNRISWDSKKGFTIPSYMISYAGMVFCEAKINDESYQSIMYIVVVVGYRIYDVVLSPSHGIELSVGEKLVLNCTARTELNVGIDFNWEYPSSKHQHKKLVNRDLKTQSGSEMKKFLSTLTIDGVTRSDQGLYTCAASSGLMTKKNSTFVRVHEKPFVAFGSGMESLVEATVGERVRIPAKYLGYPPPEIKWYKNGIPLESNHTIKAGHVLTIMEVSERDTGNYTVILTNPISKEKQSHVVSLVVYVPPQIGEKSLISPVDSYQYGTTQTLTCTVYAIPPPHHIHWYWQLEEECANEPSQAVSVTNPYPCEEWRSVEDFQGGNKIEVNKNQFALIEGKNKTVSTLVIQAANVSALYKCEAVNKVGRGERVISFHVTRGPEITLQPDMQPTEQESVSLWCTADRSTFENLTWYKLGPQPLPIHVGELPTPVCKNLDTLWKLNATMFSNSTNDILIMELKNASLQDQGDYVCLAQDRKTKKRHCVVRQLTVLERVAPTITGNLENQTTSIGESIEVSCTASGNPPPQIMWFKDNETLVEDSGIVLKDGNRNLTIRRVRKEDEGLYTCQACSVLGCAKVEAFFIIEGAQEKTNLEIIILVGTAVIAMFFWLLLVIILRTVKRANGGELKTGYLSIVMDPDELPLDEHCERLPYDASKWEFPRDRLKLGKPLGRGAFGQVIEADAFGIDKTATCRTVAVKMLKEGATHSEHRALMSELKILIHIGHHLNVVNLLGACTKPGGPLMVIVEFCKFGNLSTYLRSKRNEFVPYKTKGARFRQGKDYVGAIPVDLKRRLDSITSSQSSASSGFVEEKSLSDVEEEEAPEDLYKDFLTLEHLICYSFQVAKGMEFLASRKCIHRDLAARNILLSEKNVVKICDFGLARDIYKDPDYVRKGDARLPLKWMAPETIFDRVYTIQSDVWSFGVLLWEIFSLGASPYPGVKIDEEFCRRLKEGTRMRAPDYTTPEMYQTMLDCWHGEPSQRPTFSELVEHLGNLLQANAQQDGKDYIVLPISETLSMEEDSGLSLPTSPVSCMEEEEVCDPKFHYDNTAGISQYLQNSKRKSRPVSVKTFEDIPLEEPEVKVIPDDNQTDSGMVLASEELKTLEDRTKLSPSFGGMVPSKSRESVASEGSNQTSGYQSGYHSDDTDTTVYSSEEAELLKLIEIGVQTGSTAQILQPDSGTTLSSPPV

Kit = molecular target: T4, Kit (Homo sapiens, UniProt P10721); test: AlphaScreen kinase assay, Kit; conditions: read-out: IC50, activity toward kinase Kit
T4 construct: P1332.N6 BI PTP KIT M552-K948-X COD; His6 (N); made in house; host or cells: E. coli (PTP1B co-expressed)
T4 sequence (P10721 with tags, fused parts or gaps): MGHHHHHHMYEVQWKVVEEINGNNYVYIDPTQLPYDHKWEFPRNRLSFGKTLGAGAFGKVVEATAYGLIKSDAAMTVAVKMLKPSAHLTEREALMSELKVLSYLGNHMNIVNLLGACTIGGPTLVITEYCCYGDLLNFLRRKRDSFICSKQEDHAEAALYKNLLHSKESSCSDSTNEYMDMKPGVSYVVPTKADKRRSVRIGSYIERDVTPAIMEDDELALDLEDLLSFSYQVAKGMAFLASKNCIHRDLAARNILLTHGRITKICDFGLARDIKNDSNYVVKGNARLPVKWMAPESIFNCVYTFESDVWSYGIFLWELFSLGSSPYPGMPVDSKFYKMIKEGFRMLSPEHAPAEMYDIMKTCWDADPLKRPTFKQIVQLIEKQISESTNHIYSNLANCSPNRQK

Yes = molecular target: T5, Yes (Homo sapiens, UniProt P07947); test: Z'-Lyte FRET kinase assay (Invitrogen), Yes; conditions: read-out: IC50, activity toward kinase Yes
T5 construct: purchased Invitrogen (Carlsbad, Calif.), screening service
T5 sequence (P07947 whole entry): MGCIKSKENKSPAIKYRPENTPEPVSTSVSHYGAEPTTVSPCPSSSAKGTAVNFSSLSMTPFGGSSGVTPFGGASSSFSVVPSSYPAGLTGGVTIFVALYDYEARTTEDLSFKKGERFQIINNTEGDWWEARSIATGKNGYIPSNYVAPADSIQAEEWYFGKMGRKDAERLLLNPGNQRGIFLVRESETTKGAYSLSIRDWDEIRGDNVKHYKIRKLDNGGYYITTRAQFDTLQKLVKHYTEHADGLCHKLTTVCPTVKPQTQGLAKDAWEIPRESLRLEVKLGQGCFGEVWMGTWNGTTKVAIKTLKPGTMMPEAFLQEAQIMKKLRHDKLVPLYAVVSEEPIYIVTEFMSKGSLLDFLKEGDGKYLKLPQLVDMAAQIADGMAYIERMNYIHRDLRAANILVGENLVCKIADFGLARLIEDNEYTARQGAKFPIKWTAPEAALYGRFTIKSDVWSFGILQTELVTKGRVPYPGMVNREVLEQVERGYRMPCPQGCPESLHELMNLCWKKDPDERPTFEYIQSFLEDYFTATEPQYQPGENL
Outline: (§2)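 Serially diluted compound (1% DMSO final) is mixed with kinase plus 2 μM peptide substrate in pH 7.5 HEPES buffer, then ATP is added to 10 μM. After 1 h at room temperature, site-specific protease is added for another hour, reactions are stopped and fluorescence ratio measured.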

PKC theta = molecular target: T6, PKC theta (Homo sapiens, UniProt Q04759); test: Z'-Lyte FRET kinase assay (Invitrogen), PKC theta; conditions: read-out: IC50, activity toward kinase PKC theta
T6 construct: purchased Invitrogen (Carlsbad, Calif.), screening service
T6 sequence (Q04759 whole entry): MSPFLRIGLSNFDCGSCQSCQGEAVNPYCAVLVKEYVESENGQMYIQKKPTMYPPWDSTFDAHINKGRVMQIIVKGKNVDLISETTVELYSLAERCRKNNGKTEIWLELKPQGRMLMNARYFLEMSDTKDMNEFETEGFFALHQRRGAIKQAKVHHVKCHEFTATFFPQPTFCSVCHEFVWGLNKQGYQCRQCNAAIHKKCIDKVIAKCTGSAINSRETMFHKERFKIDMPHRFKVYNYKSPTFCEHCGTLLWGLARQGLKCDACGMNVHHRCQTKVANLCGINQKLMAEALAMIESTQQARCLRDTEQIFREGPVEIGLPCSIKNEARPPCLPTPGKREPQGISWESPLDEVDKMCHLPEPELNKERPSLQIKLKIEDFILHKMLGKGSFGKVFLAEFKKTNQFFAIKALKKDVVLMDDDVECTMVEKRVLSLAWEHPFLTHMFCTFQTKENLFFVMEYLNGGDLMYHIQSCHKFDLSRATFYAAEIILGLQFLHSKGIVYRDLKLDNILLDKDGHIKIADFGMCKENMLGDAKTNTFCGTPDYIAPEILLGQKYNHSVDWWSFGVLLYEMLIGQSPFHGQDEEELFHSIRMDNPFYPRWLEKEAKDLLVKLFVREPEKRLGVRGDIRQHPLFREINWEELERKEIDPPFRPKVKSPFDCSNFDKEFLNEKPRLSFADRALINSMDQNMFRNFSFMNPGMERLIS
Outline: as §2

Jnk1 = molecular target: T7, Jnk1 (Homo sapiens, UniProt P45983); test: AlphaScreen kinase assay, Jnk1; conditions: read-out: IC50, activity toward kinase Jnk1
T7 construct: purchased Upstate Biotechnology
T7 sequence (P45983 whole entry): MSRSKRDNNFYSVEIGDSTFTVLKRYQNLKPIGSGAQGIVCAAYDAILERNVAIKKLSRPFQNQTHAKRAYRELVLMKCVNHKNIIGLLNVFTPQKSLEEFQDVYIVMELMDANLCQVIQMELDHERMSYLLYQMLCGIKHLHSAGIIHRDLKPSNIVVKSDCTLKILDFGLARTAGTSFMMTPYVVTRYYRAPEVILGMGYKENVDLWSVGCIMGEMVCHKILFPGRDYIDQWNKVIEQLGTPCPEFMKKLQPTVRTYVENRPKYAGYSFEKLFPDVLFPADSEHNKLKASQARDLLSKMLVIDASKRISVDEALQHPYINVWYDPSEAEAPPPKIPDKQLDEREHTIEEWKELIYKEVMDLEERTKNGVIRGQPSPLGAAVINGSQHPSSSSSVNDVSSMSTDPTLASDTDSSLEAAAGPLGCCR

Akt3 = Akt3 (Homo sapiens, UniProt Q9Y243); test: AlphaScreen kinase assay, Akt3; conditions: read-out: IC50, activity toward kinase Akt3
Akt3, sequence (Q9Y243 whole entry): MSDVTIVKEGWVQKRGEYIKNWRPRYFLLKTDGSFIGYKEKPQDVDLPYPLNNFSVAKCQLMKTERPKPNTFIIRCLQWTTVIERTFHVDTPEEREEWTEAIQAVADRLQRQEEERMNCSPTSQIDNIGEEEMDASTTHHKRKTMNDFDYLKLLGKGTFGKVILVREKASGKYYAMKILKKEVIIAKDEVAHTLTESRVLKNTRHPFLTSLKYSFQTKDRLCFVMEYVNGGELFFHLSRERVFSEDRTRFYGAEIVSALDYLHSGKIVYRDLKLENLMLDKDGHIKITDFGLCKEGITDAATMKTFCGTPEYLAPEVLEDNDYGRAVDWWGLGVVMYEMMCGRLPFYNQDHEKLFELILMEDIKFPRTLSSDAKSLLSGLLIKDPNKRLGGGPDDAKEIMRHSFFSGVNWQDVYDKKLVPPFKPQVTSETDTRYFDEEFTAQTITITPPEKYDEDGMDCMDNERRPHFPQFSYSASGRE
Outline: as §1

Measured: pIC50

CCCS(=O)(=O)Nc1ccc(F)c(C(=O)c2c[nH]c3ncccc23)c1F [Compound P-0007, Propane-1-sulfonic acid [2,4-difluoro-3-(1H-pyrrolo[2,3-b]pyridine-3-carbonyl)-phenyl]-amide]
≥ 5.00: Abl | B-Raf V600E | Kdr | Kit | Yes

CS(=O)(=O)c1cccc(-c2cnc3[nH]cc(C(O)c4c(F)ccc(F)c4F)c3c2)c1 (stereo not drawn) [Compound P-0020]
≥ 5.00: Kdr | Kit | PKC theta | Yes

O=C(c1cccc(O)c1)c1c[nH]c2ncc(-c3cccs3)cc12 [Compound P-0196]
not listed: Yes | PKC theta
≥ 5.00: all other assays above

O=C(O)/C=C/c1cccc(-c2cnc3[nH]cc(C(=O)c4ccccc4F)c3c2)c1 [Compound P-0033]
not listed: PKC theta | Akt3
≥ 5.00: all other assays above

Oc1cccc(Cc2c[nH]c3ncc(-c4ccsc4)cc23)c1 [Compound P-0056]
not listed: PKC theta | Akt3
≥ 5.00: all other assays above

Cn1cc(C(F)(F)F)c(-c2ccc(S(=O)(=O)NCc3c[nH]c4ncccc34)s2)n1 [Compound P-0041]
≥ 5.00: Abl | B-Raf V600E | Kdr | Kit | Akt3

COc1ccc(F)c(C(=O)c2c[nH]c3ncc(-c4cccnc4)cc23)c1 [Compound P-0090]
not listed: PKC theta | Akt3
≥ 5.00: all other assays above

OCCOc1ccc(F)c(Cc2c[nH]c3ncc(-c4cccnc4)cc23)c1F [Compound P-1394, 2-[2,4-Difluoro-3-(5-pyridin-3-yl-1H-pyrrolo[2,3-b]pyridin-3-ylmethyl)-phenoxy]-ethanol]
≥ 5.00: Abl | B-Raf V600E | Jnk1 | Kdr | Kit

Cc1ccccc1C(=O)c1c[nH]c2nccc(-c3ccc(C(N)=O)cc3)c12 [Compound P-0017]
≥ 5.00: B-Raf V600E | Kdr | Kit | PKC theta | Yes

Cc1ccccc1C(=O)c1c[nH]c2nccc(-c3cccc(N)c3)c12 [Compound P-0044]
≥ 5.00: B-Raf V600E | Kdr | PKC theta | Yes

Nc1cccc(-c2ccnc3[nH]cc(C(=O)c4ccccc4F)c23)c1 [Compound P-0022]
≥ 5.00: B-Raf V600E | Kdr | PKC theta | Yes

O=C(O)/C=C/c1cccc(-c2cnc3[nH]cc(C(=O)c4cc(O)ccc4F)c3c2)c1 [Compound P-0010]
≥ 5.00: Abl | B-Raf V600E | Jnk1 | Yes

O=C(c1cc(O)ccc1F)c1c[nH]c2ncc(-c3ccccc3)cc12 [Compound P-0045]
≥ 5.00: Abl | B-Raf V600E | Jnk1 | Kdr | Yes

Cc1ccccc1C(=O)c1c[nH]c2nccc(-c3cccc(NS(C)(=O)=O)c3)c12 [Compound P-0109]
≥ 5.00: B-Raf V600E | PKC theta | Yes

O=C(c1cc(F)ccc1F)c1c[nH]c2nccc(-c3cccnc3)c12 [Compound P-0063]
≥ 5.00: B-Raf V600E | Kdr | PKC theta | Yes

Cc1ccc(S(=O)(=O)NCc2c[nH]c3ncccc23)cc1 [Compound P-0058]
≥ 5.00: Abl | Akt3

O=C(c1cccc(O)c1F)c1c[nH]c2ncc(-c3cccs3)cc12 [Compound P-0521, (2-fluoro-3-hydroxy-phenyl)-(5-thiophen-2-yl-1H-pyrrolo[2,3-b]pyridin-3-yl)-methanone]
≥ 5.00: Abl | B-Raf V600E | Jnk1 | Kdr | Kit

O=C(c1cc(O)ccc1F)c1c[nH]c2ncccc12 [Compound P-0005]
not listed: PKC theta | Jnk1
≥ 5.00: all other assays above

O=C(c1cc(O)ccc1F)c1c[nH]c2ncc(-c3cccs3)cc12 [Compound P-0032]
≥ 5.00: Abl | B-Raf V600E | Jnk1 | Kdr | Kit

O=C(c1ccccc1F)c1c[nH]c2nccc(-c3ccsc3)c12 [Compound P-0051]
≥ 5.00: B-Raf V600E | Kdr | PKC theta | Yes

Cc1ccc(F)cc1C(=O)c1c[nH]c2ncc(-c3cccc(N)c3)cc12 [Compound P-0040]
not listed: PKC theta | Akt3
≥ 5.00: all other assays above

Cc1ccc(S(=O)(=O)NCc2c[nH]c3nccc(-c4cccc(C#N)c4)c23)cc1 [Compound P-0072]
≥ 5.00: Abl | B-Raf V600E | Kit | Yes

O=C(c1ccccc1F)c1c[nH]c2ncc(-c3ccsc3)cc12 [Compound P-0134]
not listed: PKC theta | Akt3
≥ 5.00: all other assays above

NC(=O)c1cccc(-c2ccnc3[nH]cc(C(=O)c4cc(F)ccc4F)c23)c1 [Compound P-0049]
≥ 5.00: B-Raf V600E | Kdr | PKC theta | Yes

O=C(c1cccc(O)c1)c1c[nH]c2ncc(-c3cccnc3)cc12 [Compound P-0048]
≥ 5.00: Abl | B-Raf V600E | Kdr | Yes | Akt3

Cc1ccc(F)cc1C(=O)c1c[nH]c2ncc(-c3cccc(NS(C)(=O)=O)c3)cc12 [Compound P-0028]
≥ 5.00: Abl | B-Raf V600E | Kdr | Kit | Yes

Nc1cccc(-c2ccnc3[nH]cc(C(=O)c4cc(F)ccc4F)c23)c1 [Compound P-0046]
≥ 5.00: B-Raf V600E | Kdr | PKC theta | Yes

CCCCNC(=O)Nc1ccc(F)c(C(=O)c2c[nH]c3ncc(-c4cccnc4)cc23)c1F [Compound P-1318, 1-Butyl-3-[2,4-difluoro-3-(5-pyridin-3-yl-1H-pyrrolo[2,3-b]pyridine-3-carbonyl)-phenyl]-urea]
≥ 5.00: Abl | B-Raf V600E | Jnk1 | Kdr | Kit

CC(=O)Nc1cccc(-c2ccnc3[nH]cc(C(=O)c4ccccc4F)c23)c1 [Compound P-0070]
≥ 5.00: B-Raf V600E | Kdr | PKC theta | Yes

O=C(c1cccc(O)c1)c1c[nH]c2nccc(-c3cc(F)cc(F)c3)c12 [Compound P-0039]
≥ 5.00: B-Raf V600E | Kdr | Kit | PKC theta

Oc1cc(O)cc(Cc2c[nH]c3ncc(-c4ccsc4)cc23)c1 [Compound P-0093]
≥ 5.00: Abl | B-Raf V600E | Kdr | Kit | Yes

O=C(c1cc(O)ccc1F)c1c[nH]c2ncc(Br)cc12 [Compound P-0068, (5-Bromo-1H-pyrrolo[2,3-b]pyridin-3-yl)-(2-fluoro-5-hydroxy-phenyl)-methanone]
≥ 5.00: Abl | B-Raf V600E | Kdr | Yes

NC(=O)c1ccc(-c2ccnc3[nH]cc(C(=O)c4ccccc4F)c23)cc1 [Compound P-0014]
≥ 5.00: B-Raf V600E | Kdr | PKC theta | Yes

Cc1ccc(F)cc1C(=O)c1c[nH]c2ncc(-c3ccc(C(N)=O)cc3)cc12 [Compound P-0050]
≥ 5.00: Abl | B-Raf V600E | Kdr | Kit | Yes
